Results from US20160017273A1, “SPERM SELECTION UNIT STRUCTURE, SPERM SCREENING DEVICE PROVIDED WITH SPERM SELECTION UNIT STRUCTURE, AND METHOD OF PREPARING SEMEN FOR FERTILIZATION” (NATIONAL INSTITUTE OF ADVANCED INDUSTRIAL SCIENCE AND …, priority 2013, published 2016).

Test system: sperm of thawed frozen semen
Experiment: ratio between X sperm and Y sperm (real time PCR) in semen recovered by the sperm screening device after the sperm preservation step with a phenoxazine compound
Type: cell-based, Holstein cattle
Conditions: 25 μM brilliant cresyl blue + 5 mM glucose-6-phosphate, no electron accepting substance added, 5% CO2
Description: Frozen semen of WHO OCEANIC JOVIAN ET (Holstein cattle) was thawed in accordance with the predetermined steps, 200 μl of thawed semen was sampled and was put into a tube having a capacity of 1.5 ml. Then, semen was subjected to the centrifugal separation (7 minutes, 2000 rpm), and a half of supernatant of the semen after being subjected to the centrifugal separation was thrown away and approximately 1004 of semen was left in the tube.
An approximately 100 μL of buffer solution (obtained by adding 6 mg/mL BSA+10 μg/mL of gentamycin+5 mM EGTA to the commercially available “SP-TALP” solution) is added into the tube, the buffer solution is stirred lightly and, thereafter, the buffer solution was incubated for 50 minutes at 37° with 5% CO2.
Next, the tube was subjected to the centrifugal separation again (7 minutes, 2000 rpm), and a supernatant of the solution was thrown away, and an approximately 100 μL of buffer solution (obtained by adding 6 mg/mL BSA+10 […] to the commercially available “SP-TALP” solution; not containing EGTA) was added into the tube and, thereafter, the solution was stirred lightly.
The tube was subjected to the centrifugal separation again (7 minutes, 2000 rpm), and 100 μL of a supernatant of the solution was thrown away, and an approximately 100 μL of buffer solution (obtained by adding 6 mg/mL BSA+10 μg/mL gentamycin +25 μM brilliant cresyl blue +5 mM glucose-6-phosphate to the commercially available “SP-TALP” solution) was added into the tube and, thereafter, the solution was incubated at 37° C. with 5% CO2 (sperm preservation step). […]
Thereafter, sperm having high motility were recovered by using the sperm screening device according to this embodiment. Then, with respect to the acquired semen for artificial insemination, a ratio between X sperm and Y sperm was investigated using a real time PCR method.

[1] = incubation 30 minutes at 37° C.
[2] = incubation 50 minutes at 37° C.

Question: How did the “ratio of X sperm” value [1] turn out when brilliant cresyl blue was run?
Answer: The value was 39%.

Question: What about the “ratio of Y sperm” value [1] of the same substance?
Answer: Its value is 61%.

Question: And the “ratio of X sperm” value [2]?
Answer: Its value is 35%.

Question: What about the “ratio of Y sperm” value [2] of the same substance?
Answer: The value was 65%.
